This series in a line: general statement on activity and toxicity of carnitine stereoisomers and acyl-carnitine.

From US4330557A, “Acyl-carnitine and use thereof in parenteral administration of triglycerides” (priority 1980, dated 1982) come the findings set out here.

In the case of `C[N+](C)(C)C[C@@H](O)CC(=O)[O-]` [D-carnitine], the “toxicity of carnitine isomer” value (D-isomer versus other isomer) is reported as “slightly more toxic”.
In the case of `C[N+](C)(C)C[C@H](O)CC(=O)[O-]` [L-carnitine], the “activity of carnitine isomer” value (L-isomer versus other isomer) is recorded as “more active”.
